Laboratory results reported in patent US7935670B2, “Hepatitis C virus inhibitors” (Bristol-Myers Squibb Company, priority 2006, dated 2011).

Legend:
[1] = test system: HCV replicon in HUH-7 cells; assay: HCV replicon FRET assay; format: cell-based, HCV strain 1b; details: Hepatitis C virus, Huh-7, read-out: Activity Range (EC50)
Source text: An HCV replicon whole cell system was established as described by Lohmann V, Korner F, Koch J, Herian U, Theilmann L, Bartenschlager R., Science 285(5424): 110-3 (1999). This system enabled us to evaluate the effects of our HCV Protease compounds on HCV RNA replication. Briefly, using the HCV strain 1b sequence described in the Lohmann paper (Assession number: AJ238799), an HCV cDNA was synthesized by Operon Technologies, Inc. (Alameda, Calif.), and the full-length replicon was then assembled in plasmid pGem9zf(+) (Promega, Madison, Wis.) using standard molecular biology techniques. The replicon consists of (i) the HCV 5′ UTR fused to the first 12 amino acids of the capsid protein, (ii) the neomycin phosphotransferase gene (neo), (iii) the IRES from encephalomyocarditis virus (EMCV), and (iv) HCV NS3 to NS5B genes and the HCV 3′ UTR. Plasmid DNAs were linearized with ScaI and RNA transcripts were synthesized in vitro using the T7 MegaScript transcription kit (Ambion, Austin, Tex.) according to manufacturer's directions. In vitro transcripts of the cDNA were transfected into the human hepatoma cell line, HUH-7. […] Resulting cell lines were characterized for positive and negative strand RNA production and protein production over time.
The HCV replicon FRET assay was developed to monitor the inhibitory effects of compounds described in the disclosure on HCV viral replication. HUH-7 cells, constitutively expressing the HCV replicon, were grown in Dulbecco's Modified Eagle Media (DMEM) (Gibco-BRL) containing 10% Fetal calf serum (FCS) (Sigma) and 1 mg/ml G418 (Gibco-BRL). Cells were seeded the night before (1.5×10^4 cells/well) in 96-well tissue-culture sterile plates. Compound and no compound controls were prepared in DMEM containing 4% FCS, 1:100 Penicillin/Streptomysin (Gibco-BRL), 1:100 L-glutamine and 5% DMSO in the dilution plate (0.5% DMSO final concentration in the assay). Compound/DMSO mixes were added to the cells and incubated for 4 days at 37° C. After 4 days, cells were first assessed for cytotoxicity using alamar Blue (Trek Diagnotstic Systems) for a CC50 reading. The toxicity of compound (CC50) was determined by adding 1/10th volume of alamar Blue to the media incubating the cells. After 4 h, the fluorescence signal from each well was read, with an excitation wavelength at 530 nm and an emission wavelength of 580 nm, using the Cytofluor Series 4000 (Perspective Biosystems). Plates were then rinsed thoroughly with Phosphate-Buffered Saline (PBS) (3 times 150 μl). The cells were lysed with 25 μl of a lysis assay reagent containing an HCV protease substrate (5× cell Luciferase cell culture lysis reagent (Promega #E153A) diluted to 1× with distilled water, NaCl added to 150 mM final, the FRET peptide substrate (as described for the enzyme assay above) diluted to 10 μM final from a 2 mM stock in 100% DMSO. The plate was then placed into the Cytofluor 4000 instrument which had been set to 340 nm excitation/490 nm emission, automatic mode for 21 cycles and the plate read in a kinetic mode. EC50 determinations were carried out as described for the IC50 determinations.

[2] = biological target: T1, HCV NS3/4A protease complex, BMS strain (UniProt P27958, species not given/STRAIN_BMS); assay: FRET peptide assay to monitor HCV NS3/4A proteolytic activity (BMS strain); format: biochemical, HCV genotype 1a; details: NS3/4A BMS strain; read-out: Activity Range (IC50)
T1 construct: given for H77 and J4L6S, not expressly for BMS; fused on or other part: three-lysine solubilising tail at the end of NS4A (given for the H77 and J4L6S constructs)
T1 sequence (P27958 1027-1657, change not shown, one chain of several): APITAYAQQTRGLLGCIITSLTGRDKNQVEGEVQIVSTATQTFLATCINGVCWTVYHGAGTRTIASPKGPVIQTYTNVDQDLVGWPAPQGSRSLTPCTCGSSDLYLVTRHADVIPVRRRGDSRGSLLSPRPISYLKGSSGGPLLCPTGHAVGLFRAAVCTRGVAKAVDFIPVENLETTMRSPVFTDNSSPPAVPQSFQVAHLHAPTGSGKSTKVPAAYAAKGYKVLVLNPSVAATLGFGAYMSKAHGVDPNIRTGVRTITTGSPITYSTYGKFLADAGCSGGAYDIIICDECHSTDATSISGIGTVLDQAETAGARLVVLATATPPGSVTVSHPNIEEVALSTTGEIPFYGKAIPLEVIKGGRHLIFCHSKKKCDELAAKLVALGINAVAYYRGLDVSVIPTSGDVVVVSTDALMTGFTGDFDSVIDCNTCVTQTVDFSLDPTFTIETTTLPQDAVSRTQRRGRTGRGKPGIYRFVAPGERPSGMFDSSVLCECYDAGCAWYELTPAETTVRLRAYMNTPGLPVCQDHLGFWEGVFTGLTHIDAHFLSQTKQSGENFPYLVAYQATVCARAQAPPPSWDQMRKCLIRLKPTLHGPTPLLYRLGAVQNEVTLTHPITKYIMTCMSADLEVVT
Source text: HCV NS3 protease complexes, derived from the BMS strain, H77 strain or J4L6S strain, were generated, as described below. These purified recombinant proteins were generated for use in a homogeneous assay (see below) to provide an indication of how effective compounds of the present disclosure would be in inhibiting HCV NS3 proteolytic activity.
Serum from an HCV-infected patient was obtained from Dr. T. Wright, San Francisco Hospital. An engineered full-length cDNA (compliment deoxyribonucleic acid) template of the HCV genome (BMS strain) was constructed from DNA fragments obtained by reverse transcription-PCR(RT-PCR) of serum RNA (ribonucleic acid) and using primers selected on the basis of homology between other genotype 1a strains. From the determination of the entire genome sequence, a genotype 1a was assigned to the HCV isolate according to the classification of Simmonds et al. (See P Simmonds, K A Rose, S Graham, S W Chan, F McOmish, B C Dow, E A Follett, P L Yap and H Marsden, J. Clin. Microbiol., 31(6), 1493-1503 (1993)). […] The infectious clones, H77 (1a genotype) and J4L6S (1b genotype) were obtained from R. Purcell (NIH) and the sequences are published in Genbank (AAB67036, see Yanagi, M., Purcell, R. H., Emerson, S. U. and Bukh, J. Proc. Natl. Acad. Sci. U.S.A. 94(16), 8738-8743 (1997); AF054247, see Yanagi, M., St Claire, M., Shapiro, M., Emerson, S. U., Purcell, R. H. and Bukh, J, Virology 244 (1), 161-172. (1998)).
NS3/4A protease complex-containing fractions were pooled and loaded on a desalting column Superdex-S200 pre-equilibrated with buffer D (25 mM HEPES, pH 7.5, 20% glycerol, 300 mM NaCl, 0.2% Triton X-100, 10 mM βME). Sample was loaded at a flow rate of 1 mL/min. NS3/4A protease complex-containing fractions were pooled and concentrated to approximately 0.5 mg/ml. The purity of the NS3/4A protease complexes, derived from the BMS, H77 and J4L6S strains, were judged to be greater than 90% by SDS-PAGE and mass spectrometry analyses. The enzyme was stored at −80° C., thawed on ice and diluted prior to use in assay buffer.
The purpose of this in vitro assay was to measure the inhibition of HCV NS3 protease complexes, derived from the BMS strain, H77 strain or J4L6S strain, as described above, by compounds of the present disclosure. This assay provides an indication of how effective compounds of the present disclosure would be in inhibiting HCV NS3 proteolytic activity.
In order to monitor HCV NS3/4A protease activity, an NS3/4A peptide substrate was used. The substrate was RET S1 (Resonance Energy Transfer Depsipeptide Substrate; AnaSpec, Inc. cat #22991)(FRET peptide), described by Taliani et al. in Anal. Biochem. 240(2):60-67 (1996). The sequence of this peptide is loosely based on the NS4A/NS4B natural cleavage site for the HCV NS3 protease except there is an ester linkage rather than an amide bond at the cleavage site. The peptide also contains a fluorescence donor, EDANS, near one end of the peptide and an acceptor, DABCYL, near the other end. The fluorescence of the peptide is quenched by […] resonance energy transfer (RET) between the donor and the acceptor, but as the NS3 protease cleaves the peptide the products are released from RET quenching and the fluorescence of the donor becomes apparent.
The peptide substrate was incubated with one of the three recombinant NS3/4A protease complexes, in the absence or presence of a compound of the present disclosure. The inhibitory effects of a compound were determined by monitoring the formation of fluorescent reaction product in real time using a Cytofluor Series 4000.
Assay buffer: 50 mM HEPES, pH 7.5; 0.15 M NaCl; 0.1% Triton; 15% Glycerol; 10 mM βME. Substrate: 2 μM final concentration (from a 2 mM stock solution in DMSO stored at −20° C.). HCV NS3/4A protease type 1a (1b), 2-3 nM final concentration (from a 5 μM stock solution in 25 mM HEPES, pH 7.5, 20% glycerol, 300 mM NaCl, 0.2% Triton-X100, 10 mM βME). […]

Structure (SMILES): C=C[C@@H]1C[C@]1(NC(=O)[C@@H]1C[C@@H](OC(=O)c2ccc3c(c2)CCO3)CN1C(=O)[C@@H](NC(=O)OC(C)(C)C)C(C)(C)C)C(=O)NS(=O)(=O)C1CC1 [Compound 7]
- EC50 [1]: 0.025 to 0.2 µM
- IC50 [2]: 0.001 to 0.05 µM

Structure (SMILES): C=C[C@@H]1C[C@]1(NC(=O)[C@@H]1C[C@@H](OC(=O)c2ccc(-c3ccccc3)cc2)CN1C(=O)[C@@H](NC(=O)OC(C)(C)C)C(C)(C)C)C(=O)NS(=O)(=O)C1CC1 [Compound 4]
- EC50 [1]: 0.2 to 1 µM
- IC50 [2]: 0.001 to 0.05 µM

Structure (SMILES): C=C[C@@H]1C[C@]1(NC(=O)[C@@H]1C[C@@H](OC(=O)c2ccc(F)cc2)CN1C(=O)[C@@H](NC(=O)OC(C)(C)C)C(C)(C)C)C(=O)NS(=O)(=O)C1CC1 [Compound 2]
- EC50 [1]: 0.2 to 1 µM
- IC50 [2]: 0.001 to 0.05 µM

Structure (SMILES): C=C[C@@H]1C[C@]1(NC(=O)[C@@H]1C[C@@H](OC(=O)c2ccc3sccc3c2)CN1C(=O)[C@@H](NC(=O)OC(C)(C)C)C(C)(C)C)C(=O)NS(=O)(=O)C1CC1 [Compound 6]
- EC50 [1]: 0.025 to 0.2 µM
- IC50 [2]: 0.001 to 0.05 µM

Structure (SMILES): C=C[C@@H]1C[C@]1(NC(=O)[C@@H]1C[C@@H](OC(=O)c2ccc(OC)cc2)CN1C(=O)[C@@H](NC(=O)OC(C)(C)C)C(C)(C)C)C(=O)NS(=O)(=O)C1CC1 [Compound 3]
- EC50 [1]: 0.025 to 0.2 µM
- IC50 [2]: 0.001 to 0.05 µM

Structure (SMILES): C=C[C@@H]1C[C@]1(NC(=O)[C@@H]1C[C@@H](OC(=O)c2ccc3ncccc3c2)CN1C(=O)[C@@H](NC(=O)OC(C)(C)C)C(C)(C)C)C(=O)NS(=O)(=O)C1CC1 [Compound 5]
- EC50 [1]: 0.025 to 0.2 µM
- IC50 [2]: 0.001 to 0.05 µM
